Data taken from US20240407990A1, “SYNERGISTIC ANTIOXIDANT COMPOSITIONS” (The Procter & Gamble Company, priority 2023, published 2024).

What was measured:
keratinocytes = experiment: Peroxide-Induced Keratinocyte Stress (ATP levels post-peroxide exposure); assay type: cell-based; set-up: key: net luminescence counts (treatment minus vehicle control)
Text: This methodology is further discussed in Assessing bioenergetic function in response to oxidative stress by metabolic profiling. Free Radical Biology and Medicine; […], Benavides […], Zelickson […]. Zou L, Chatham J C, Hill B G, Zhang […]; 2011 Nov. 1; 51(9):1621-35, incorporated herein by reference, as well as in Proceedings of the National Academy of Sciences of the United States of America; Miyoshi N, Oubrahim H, Chock […] . . . 2006 Feb. 7; 103(6):1727-31, incorporated herein by reference. […] Hydrogen peroxide is a well-known ROS as is commonly used as a surrogate to analyze the effects of a variety of ROS. In this test, keratinocytes are cultured (passage <8) in T150 flasks using Epi-Life medium (Calcium Free and Phenol Red Free, supplemented with penicillin/streptomycin and keratinocytes growth supplement, Invitrogen cat #[…]500) in a CO2 incubator (Forma 51030532, Marietta OH). The keratinocytes are then plated into 96 well plates, 10,000 cells/well, 0.2 ml media. […] Luminescence is measured on a SpectraMax M3 (Molecular Devices, Sunnyvale, CA). Net luminescence is calculated by subtracting the luminescence counts from the vehicle control from the luminescence counts from the treatment groups. […] In each case, the arithmetic sum of the measured anti-oxidant activity of the three individual components is compared to the measured anti-oxidant activity of the triad combination of the same levels. Experiments are done in triplicate enabling the statistical determination (by T-test) of significance of whether synergism (observed/calculated ratio is greater than 1) is observed.

skin = conditions: cited from earlier work
skin fibroblasts = skin fibroblasts in vitro; cited from earlier work

**Q.** For `NC(=O)c1cccnc1` [Niacinamide, niacinamide], which “Mean Keratinocyte ATP Level” value (keratinocytes; Niacinamide 0.005% alone, post-peroxide, series with PO 0.5%) is on record?
**A.** The value was 100.3.

**Q.** And the “Mean Keratinocyte ATP Level” value (keratinocytes; Niacinamide 0.005% alone, post-peroxide, series with PO 0.8%)?
**A.** Its value is 32.7.

**Q.** And the “Mean Keratinocyte ATP Level” value (keratinocytes; Niacinamide 0.01% alone, post-peroxide, series with PO 0.5%)?
**A.** Its value is 154.3.

**Q.** What about the “Mean Keratinocyte ATP Level” value (keratinocytes; Niacinamide 0.01% alone, post-peroxide, series with PO 0.8%) of the same compound?
**A.** Its value is 85.7.

**Q.** And the “Mean Keratinocyte ATP Level” value (keratinocytes; Niacinamide 0.05% alone, post-peroxide, series with PO 0.5%)?
**A.** The value was 341.0.

**Q.** What about the “Mean Keratinocyte ATP Level” value (keratinocytes; Niacinamide 0.05% alone, post-peroxide, series with PO 0.8%) of the same compound?
**A.** Its value is 465.0.

**Q.** And the “Mean Keratinocyte ATP Level” value (keratinocytes; Niacinamide 0.1% alone, post-peroxide, series with PO 0.5%)?
**A.** Its value is 1142.0.

**Q.** And the “Mean Keratinocyte ATP Level” value (keratinocytes; Niacinamide 0.1% alone, post-peroxide, series with PO 0.8%)?
**A.** Its value is 875.0.

**Q.** And the “Mean Keratinocyte ATP Level” value (keratinocytes; Niacinamide 1.0% alone, post-peroxide, series with PO 0.5%)?
**A.** Its value is 9208.3.

**Q.** And the “Mean Keratinocyte ATP Level” value (keratinocytes; Niacinamide 1.0% alone, post-peroxide, series with PO 0.8%)?
**A.** The value was 6003.7.

**Q.** And the “Mean Keratinocyte ATP Level” value (keratinocytes; Niacinamide 1.8% alone, post-peroxide, series with PO 0.5%)?
**A.** Its value is 12314.3.

**Q.** And the “Mean Keratinocyte ATP Level” value (keratinocytes; Niacinamide 1.8% alone, post-peroxide, series with PO 0.8%)?
**A.** The value was 11751.3.

**Q.** What about the “lipoperoxide generation in skin” value (skin) of the same compound?
**A.** Its value is “inhibit”.

**Q.** And the “oxidative damage caused by pollutant particulate matter” value (skin)?
**A.** Its value is “inhibit”.

**Q.** With `CC(C)(CO)[C@@H](O)C(=O)NCCCO` [Panthenol, panthenol] as the compound, how does the “Mean Keratinocyte ATP Level” value (keratinocytes; Panthenol 0.005% alone, post-peroxide, series with PO 0.5%) read?
**A.** Its value is 193.3.

**Q.** What about the “Mean Keratinocyte ATP Level” value (keratinocytes; Panthenol 0.005% alone, post-peroxide, series with PO 0.8%) of the same compound?
**A.** Its value is 170.0.

**Q.** And the “Mean Keratinocyte ATP Level” value (keratinocytes; Panthenol 0.01% alone, post-peroxide, series with PO 0.5%)?
**A.** Its value is 473.3.

**Q.** And the “Mean Keratinocyte ATP Level” value (keratinocytes; Panthenol 0.01% alone, post-peroxide, series with PO 0.8%)?
**A.** Its value is 280.0.

**Q.** What about the “Mean Keratinocyte ATP Level” value (keratinocytes; Panthenol 0.05% alone, post-peroxide, series with PO 0.5%) of the same compound?
**A.** The value was 617.3.

**Q.** And the “Mean Keratinocyte ATP Level” value (keratinocytes; Panthenol 0.05% alone, post-peroxide, series with PO 0.8%)?
**A.** Its value is 550.7.

**Q.** What about the “Mean Keratinocyte ATP Level” value (keratinocytes; Panthenol 0.1% alone, post-peroxide, series with PO 0.5%) of the same compound?
**A.** Its value is 1234.3.

**Q.** And the “Mean Keratinocyte ATP Level” value (keratinocytes; Panthenol 0.1% alone, post-peroxide, series with PO 0.8%)?
**A.** The value was 1227.7.

**Q.** And the “Mean Keratinocyte ATP Level” value (keratinocytes; Panthenol 0.2% alone, post-peroxide, series with PO 0.5%)?
**A.** The value was 5282.0.

**Q.** And the “Mean Keratinocyte ATP Level” value (keratinocytes; Panthenol 0.2% alone, post-peroxide, series with PO 0.8%)?
**A.** The value was 5711.7.

**Q.** What about the “formation of reactive oxygen species (ROS)” value (skin fibroblasts) of the same compound?
**A.** The value was “inhibit”.

**Q.** What does the source list for `Cc1cc(CC(C)CC(C)(C)C)n(O)c(=O)c1.NCCO` (stereo not drawn) [Piroctone Olamine, piroctone olamine]?
**A.** Mean Keratinocyte ATP Level (keratinocytes; Piroctone Olamine 0.5% alone, post-peroxide exposure): 13548.3; Mean Keratinocyte ATP Level (keratinocytes; Piroctone Olamine 0.8% alone, post-peroxide exposure): 18548.3
